How the values were obtained:
hERG = target: T1, hERG (Homo sapiens, UniProt Q12809); assay: hERG channel inhibition assay (patch-clamp, CHO hERG cells); type: cell-based
T1 construct: expressed in transfected cells
Procedure: The hERG K^+ channels were cloned in humans and stably expressed in a CHO (Chinese hamster ovary) cell line. CHOhERG cells were used for patch-clamp (voltage-clamp, whole-cell) experiments. Cells were stimulated by a voltage pattern to activate hERG channels and conduct I KhERG currents (rapid delayed outward rectifier potassium current of the hERG channel). After the cells were stabilized for a few minutes, the amplitude and kinetics of I KhERG were recorded at a stimulation frequency of 0.1 Hz (6 bpm). Thereafter, the test compound was added to the preparation at increasing concentrations. For each concentration, an attempt was made to reach a steady-state effect, usually, this was achieved within 3-10 min at which time the next highest concentration was applied. The amplitude and kinetics of IKhERG are recorded in each concentration of the drug which were compared to the control values (taken as 100%). […]

human TLR7 = target: T2, human TLR7 (Homo sapiens, UniProt Q9NYK1); assay: HEK293-Blue-hTLR-7 cells assay (SEAP reporter, R848 stimulation); type: cell-based; conditions: HEK293-Blue-hTLR7 cells, R848 ligand, 20 hrs incubation; read-out: HEK/hTLR7 IC50
T2 sequence (Q9NYK1 27-1049): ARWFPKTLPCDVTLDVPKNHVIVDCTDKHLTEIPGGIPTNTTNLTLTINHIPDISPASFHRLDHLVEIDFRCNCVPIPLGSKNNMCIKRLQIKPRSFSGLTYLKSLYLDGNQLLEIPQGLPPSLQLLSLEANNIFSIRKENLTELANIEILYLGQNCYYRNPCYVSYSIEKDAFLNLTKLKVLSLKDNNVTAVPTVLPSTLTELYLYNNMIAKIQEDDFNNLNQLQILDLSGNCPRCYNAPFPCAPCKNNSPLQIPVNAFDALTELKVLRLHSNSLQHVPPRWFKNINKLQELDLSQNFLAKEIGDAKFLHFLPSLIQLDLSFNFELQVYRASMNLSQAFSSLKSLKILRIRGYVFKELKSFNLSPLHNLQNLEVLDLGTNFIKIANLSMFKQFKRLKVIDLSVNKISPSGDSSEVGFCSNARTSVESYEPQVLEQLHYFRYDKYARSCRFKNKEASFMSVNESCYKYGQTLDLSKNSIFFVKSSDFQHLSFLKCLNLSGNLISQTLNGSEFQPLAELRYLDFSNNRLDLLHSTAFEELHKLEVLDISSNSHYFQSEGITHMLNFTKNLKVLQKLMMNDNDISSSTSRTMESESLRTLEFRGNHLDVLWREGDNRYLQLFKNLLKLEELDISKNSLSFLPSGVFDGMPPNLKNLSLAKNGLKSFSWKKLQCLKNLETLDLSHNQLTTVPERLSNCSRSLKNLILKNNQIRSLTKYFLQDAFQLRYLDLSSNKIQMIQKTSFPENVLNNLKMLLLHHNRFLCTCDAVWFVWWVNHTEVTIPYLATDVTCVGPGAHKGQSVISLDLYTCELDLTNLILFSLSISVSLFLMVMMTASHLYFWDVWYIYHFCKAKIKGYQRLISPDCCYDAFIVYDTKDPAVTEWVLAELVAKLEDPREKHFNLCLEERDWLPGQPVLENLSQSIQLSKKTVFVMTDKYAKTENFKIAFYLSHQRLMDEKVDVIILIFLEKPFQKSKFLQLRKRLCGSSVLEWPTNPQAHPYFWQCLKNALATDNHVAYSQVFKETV
Procedure: The following tests were carried out in order to determine the activity of the compounds of formula (I) in HEK293-Blue-hTLR-7/8/9 cells assay.
A stable HEK293-Blue-hTLR-7 cell line was purchased from InvivoGen (Cat.#: hkb-htlr7, San Diego, California, USA). These cells were originally designed for studying the stimulation of human TLR7 by monitoring the activation of NF-κB. A SEAP (secreted embryonic alkaline phosphatase) reporter gene was placed under the control of the IFN-β minimal promoter fused to five NF-κB and AP-1-binding sites. The SEAP was induced by activating NF-κB and AP-1 via stimulating HEK-Blue hTLR7 cells with TLR7 ligands. Therefore the reporter expression was declined by TLR7 antagonist under the stimulation of a ligand, such as R848 (Resiquimod), for incubation of 20 hrs. The cell culture supernatant SEAP reporter activity was determined using QUANTI-Blue™ kit (Cat.#: rep-qb1, Invivogen, San Diego, Ca, USA) at a wavelength of 640 nm, a detection medium that turns purple or blue in the presence of alkaline phosphatase.
HEK293-Blue-hTLR7 cells were incubated at a density of 250,000˜450,000 cells/mL in a volume of 170 μL in a 96-well plate in Dulbecco's Modified Eagle's medium (DMEM) containing 4.5 g/L glucose, 50 U/mL penicillin, […], […], 2 mM L-glutamine, 10% (v/v) heat-inactivated fetal bovine serum with addition of 20 μL test compound in a serial dilution in the presence of final DMSO at 1% and 10 μL of 20 uM R848 in above DMEM, perform incubation under 37° C. in a CO2 incubator for 20 hrs. Then 20 μL of the supernatant from each well was incubated with […] Quanti-blue substrate solution at 37° C. for 2 hrs and the absorbance was read at 620-655 nm using a spectrophotometer. The signalling pathway that TLR7 activation leads to downstream NF-κB activation has been widely accepted, and therefore similar reporter assay was modified for evaluating TLR7 antagonist.

[1] = safety ratio, >30 suggests sufficient window

T1 sequence (Q12809 whole entry): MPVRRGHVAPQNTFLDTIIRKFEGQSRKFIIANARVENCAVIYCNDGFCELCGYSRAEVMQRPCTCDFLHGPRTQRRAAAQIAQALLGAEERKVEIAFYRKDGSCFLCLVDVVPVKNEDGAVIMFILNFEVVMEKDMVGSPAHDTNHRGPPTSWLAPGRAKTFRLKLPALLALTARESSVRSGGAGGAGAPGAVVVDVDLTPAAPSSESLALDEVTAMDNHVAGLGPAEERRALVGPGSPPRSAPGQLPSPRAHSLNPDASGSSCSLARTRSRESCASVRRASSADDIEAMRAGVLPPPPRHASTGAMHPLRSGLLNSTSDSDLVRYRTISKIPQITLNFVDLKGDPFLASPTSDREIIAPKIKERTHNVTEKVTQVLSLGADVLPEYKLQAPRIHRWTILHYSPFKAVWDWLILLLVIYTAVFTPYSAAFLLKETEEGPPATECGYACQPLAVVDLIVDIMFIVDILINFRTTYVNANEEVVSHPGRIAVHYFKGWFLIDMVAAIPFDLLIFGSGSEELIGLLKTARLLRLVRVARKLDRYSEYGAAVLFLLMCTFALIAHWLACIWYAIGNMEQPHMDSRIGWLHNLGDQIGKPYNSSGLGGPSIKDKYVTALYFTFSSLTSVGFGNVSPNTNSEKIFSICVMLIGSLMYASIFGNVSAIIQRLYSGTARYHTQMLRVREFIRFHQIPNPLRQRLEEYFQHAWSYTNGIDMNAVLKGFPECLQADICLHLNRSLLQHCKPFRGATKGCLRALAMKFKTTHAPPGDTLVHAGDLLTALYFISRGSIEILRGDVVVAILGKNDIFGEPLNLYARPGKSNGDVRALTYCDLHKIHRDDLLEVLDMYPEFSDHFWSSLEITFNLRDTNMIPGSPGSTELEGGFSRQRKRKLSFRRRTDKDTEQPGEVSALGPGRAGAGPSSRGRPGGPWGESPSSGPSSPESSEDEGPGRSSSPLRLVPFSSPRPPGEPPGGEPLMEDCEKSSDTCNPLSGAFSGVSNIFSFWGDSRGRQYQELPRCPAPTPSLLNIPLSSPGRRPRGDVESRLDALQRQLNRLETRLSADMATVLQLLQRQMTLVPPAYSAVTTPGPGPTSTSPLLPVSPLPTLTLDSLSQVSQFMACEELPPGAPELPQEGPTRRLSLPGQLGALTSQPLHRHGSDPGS

`C[C@@H]1CN(c2ccc(C#N)c3ncccc23)C[C@H](C)N1CC(=O)N1Cc2ccc(N3CCNCC3)cc2C1` [Example 16, 5-[(3R,5S)-3,5-Dimethyl-4-[2-oxo-2-(5-piperazin-1-ylisoindolin-2-yl)ethyl]piperazin-1-yl]quinoline-8-carbonitrile] was tested, and the IC50 (hERG; CHO hERG cells, whole-cell patch-clamp) was over 20 µM, the IC20 (hERG; human, CHO cells stably expressing hERG, CHO hERG cells, whole-cell patch-clamp) was over 10 µM and the “hERG IC20/TLR7 IC50” value (hERG; [1]) was over 289. For the same compound, the “hERG IC20/TLR8 IC50” value (hERG; [1]) was over 182, the “hERG IC20/TLR9 IC50” value (hERG; [1]) was over 134 and the IC50 (human TLR7) was 0.035 µM.

From patent publication US11952363B2, “Piperazine compounds for the treatment of autoimmune disease” (Hoffmann-La Roche Inc., priority 2018, dated 2024)
